System: GABAA receptor transmembrane anesthetic binding sites
Test: not given
Details: cited from earlier work
For `CC(c1ccccc1)n1cncc1C(=O)OCCC1(C)N=N1` (stereo not drawn) [^3[H]azi-etomidate], the “Selectivity of photolabel for its respective class of binding sites” value is listed as “more than 50 fold”. In the case of `C=CC[C@@]1(c2cccc(C3(C(F)(F)F)N=N3)c2)C(=O)NC(=O)N(C)C1=O`, the “Selectivity of photolabel for its respective class of binding sites” value is given as “more than 50 fold”.

Biological target: α1β3γ2L GABAA receptors (β+ – α− sites) (Homo sapiens, UniProt P14867+P18507+P28472)
Sequence (P14867 28-456): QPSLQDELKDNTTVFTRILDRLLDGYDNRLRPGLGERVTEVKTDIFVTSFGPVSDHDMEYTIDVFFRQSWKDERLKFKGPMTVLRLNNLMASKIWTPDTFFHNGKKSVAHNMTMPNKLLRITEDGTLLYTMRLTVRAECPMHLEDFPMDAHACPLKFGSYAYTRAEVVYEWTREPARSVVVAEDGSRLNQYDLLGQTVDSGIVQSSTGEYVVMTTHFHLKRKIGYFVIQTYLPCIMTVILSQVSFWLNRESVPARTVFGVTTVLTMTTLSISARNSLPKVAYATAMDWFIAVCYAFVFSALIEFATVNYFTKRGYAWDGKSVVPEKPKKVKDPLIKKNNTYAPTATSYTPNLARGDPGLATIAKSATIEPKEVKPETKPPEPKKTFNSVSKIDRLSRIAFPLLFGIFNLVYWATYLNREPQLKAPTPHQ
Sequence (P28472 26-473): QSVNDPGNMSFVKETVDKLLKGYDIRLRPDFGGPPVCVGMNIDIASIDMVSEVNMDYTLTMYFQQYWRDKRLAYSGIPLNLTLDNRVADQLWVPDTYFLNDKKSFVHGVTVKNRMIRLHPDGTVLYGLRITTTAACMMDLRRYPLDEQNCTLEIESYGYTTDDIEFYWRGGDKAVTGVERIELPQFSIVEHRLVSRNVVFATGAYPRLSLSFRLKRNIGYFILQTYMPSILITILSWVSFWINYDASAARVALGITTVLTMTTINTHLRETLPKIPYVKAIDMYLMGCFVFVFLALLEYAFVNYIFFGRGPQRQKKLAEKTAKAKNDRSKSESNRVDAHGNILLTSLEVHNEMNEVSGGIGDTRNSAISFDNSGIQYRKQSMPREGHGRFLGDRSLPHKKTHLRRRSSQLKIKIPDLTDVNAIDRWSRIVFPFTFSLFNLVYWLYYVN
Sequence (P18507 40-475): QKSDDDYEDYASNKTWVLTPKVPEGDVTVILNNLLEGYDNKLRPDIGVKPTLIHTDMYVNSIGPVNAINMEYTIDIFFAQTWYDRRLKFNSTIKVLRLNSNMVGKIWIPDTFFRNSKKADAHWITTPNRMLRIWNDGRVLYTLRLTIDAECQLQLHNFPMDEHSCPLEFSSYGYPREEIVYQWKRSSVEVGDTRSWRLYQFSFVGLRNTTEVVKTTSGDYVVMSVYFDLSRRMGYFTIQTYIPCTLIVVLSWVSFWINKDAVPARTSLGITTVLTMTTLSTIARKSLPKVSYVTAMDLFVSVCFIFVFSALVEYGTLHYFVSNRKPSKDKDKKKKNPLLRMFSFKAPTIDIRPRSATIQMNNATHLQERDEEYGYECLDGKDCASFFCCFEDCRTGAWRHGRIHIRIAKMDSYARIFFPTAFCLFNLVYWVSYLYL
Test: Inhibition of ^3[H]azi-etomidate photoaffinity labeling of purified receptors
Type: binding
Details: read-out: IC50 for Inhibiting Photoaffinity Labeling by ^3[H]Azi-etomidate (95% CI); ~2 μM photolabel; 1 mM GABA (open/desensitized state)
For `CCOC(=O)c1cncn1[C@H](C)c1ccc(F)cc1` [p-Fluoro-etomidate], the IC50 was 3.6 µM. In the case of `CCOC(=O)c1cncn1[C@H](C)c1cccc(OC(C)C)c1` [m-Isopropoxy-etomidate], the IC50 is reported as 210 µM. With `CCOC(=O)c1cncn1[C@H](C)c1ccc(Br)cc1` [p-Bromo-etomidate] the IC50 was 8.1 µM. In the case of m-Dimethoxy-etomidate, the IC50 is reported as 830 µM. In the case of `CCOC(=O)c1cncn1C(C)c1ccc2ccccc2c1` (stereo not drawn) [Naphthalene2-etomidate], the IC50 is reported as 77 µM. For `CCOC(=O)c1cncn1[C@H](C)c1ccc(OC)cc1` [p-Methoxy-etomidate], the IC50 was 75 µM.

Biological target: α1β3γ2L GABAA receptors (Homo sapiens, UniProt P14867+P18507+P28472)
Sequence (P14867 28-456): as the sequence (P14867 28-456) above
Sequence (P28472 26-473): as the sequence (P28472 26-473) above
Sequence (P18507 40-475): as the sequence (P18507 40-475) above
Test: not given
Type: cell-based
Details: 100 μM drug; wild-type receptors; n = 6 oocytes; EC5 GABA alone 4.4 ± 1.2%; P = 0.002
In the case of `CCOC(=O)c1cncn1C(C)c1cccc2ccccc12` (stereo not drawn) [Naphthalene-etomidate], the “Peak amplitude of EC5 GABA-evoked current with drug” value is reported as 10 ± 2.4 % of the current produced by 1 mM GABA.

— PMC6278829 (Anesthesiology, 2018)
